Reference: paper PMC6988309, “Preclinical efficacy for a novel tyrosine kinase inhibitor, ArQule 531 against acute myeloid leukemia” (Journal of Hematology & Oncology, 2020)
pIC50: −log10 of the molar value. Several values for one entry are separate records, joined by “and”; a condition that tells them apart may be missing. Equal entries are not always repeated. Where two headings read alike, the source gives them in different places.

Experiments:
[1] = target: FLT3-ITD (Homo sapiens, UniProt P36888, ITD); assay: Biochemical assay of recombinant kinases, FLT3-ITD; conditions: recombinant kinase domain, 10 μmol/L ATP
Method: Biochemical inhibition of FLT3-WT and FLT3-ITD fusion was measured using recombinant protein constructs of kinase domains (Reaction Biology).

[2] = test system: primary AML patient blasts; assay: Colony-Forming Unit-Granulocyte and Macrophage (CFU-GM) assay; assay type: cell-based, human; conditions: 3 µM, colonies counted after 14 days
Method: Primary AML patient samples were treated and plated at 5000–10,000 cells in 1.1 ml methylcellulose supplemented with recombinant human stem cell factor, interleukin 3, granulocyte colony-stimulating factor, and granulocyte-macrophage colony-stimulating factor (MethoCult™, […] Technologies, Vancouver, Canada) per dish in duplicates. Colonies were counted after 14 days when using primary patient samples.
MTS proliferation assay using a human stroma co-culture assay. […] FLT3 wild-type (WT) samples (red) and FLT3-ITD (black). Colony-Forming Unit-Granulocyte and Macrophage (CFU-GM) assay. […] Number of colonies were counted after 14 days (c)

[3] = test system: Ba/F3 FLT3-ITD/D835Y; assay: MTT proliferation assay 72 h, Ba/F3 FLT3-ITD/D835Y; assay type: cell-based, murine; conditions: Mus musculus, BaF3, read-out: Estimated absolute µM IC50 and 95% CI
Method: For the MOLM-13 resistant and the Ba/F3-FLT3-ITD/TKD cell lines, cells were treated for 72 h and cell viability was evaluated using MTT assay (Roche Diagnostics. Mannheim. Germany) according to the manufacturer’s instructions.

[4] = test system: Ba/F3 FLT3-ITD pMIT-Empty
Method: (§3) CellTiter 96 Aqueous MTS reagent (Promega, Madison, WI) was added to cells followed by a 3-h incubation at 37 °C, 5% CO2. The absorbance was measured at 490 nm using DTX 880 plate reader and the half maximal inhibitory concentration (IC50) was calculated using GraphPad Prism 7 (GraphPad Software, La Jolla, CA) and SAS/STAT software (SAS v9.4 for Windows, SAS Institute, Inc., Cary, NC).

[5] = test system: MOLM-13 disseminated AML xenograft; assay: MOLM-13 disseminated xenograft, ARQ + Ven combination study (NCG mice); assay type: in vivo; conditions: 50 mg/kg ARQ 531 and/or 75 mg/kg venetoclax Q.D.P.O from 4 days post-engraftment until ERC; vehicle 25 days
Method: All experiments were conducted after approval of The Ohio State University Institutional Animal Care and Use Committee. Mice were randomized and enrolled for daily oral gavage (Q.D.P.O) treatment of vehicle or 50 mg/kg ARQ 531. Mice were treated until reaching early removal criteria (ERC) defined as 20% weight loss, lethargy, hind limb paralysis, moribund, anorexia, dehydration, hunched posture, severe diarrhea, breathing difficulties, or any abnormal neurological symptoms. […]
Fig. 7 BCL2 inhibition improves ARQ 531 in vivo activity. a Kaplan–Meier survival curve in the MOLM-13 xenograft after mice were treated with vehicle (N = 9) or 50 mg/kg ARQ 531 Q.D.P.O (N = 9) or 75 mg/kg venetoclax Q.D.P.O (N = 10) or 50 mg/kg ARQ 531 and 75 mg/kg venetoclax combination Q.D.P.O (N = 10) at 4 days post engraftment until ERC. b Noninvasive serial whole body bioluminescence imaging of ventral view to monitor leukemia progression and regression post treatment. Mice were injected with 150 mg/kg Firefly D-Luciferin for evaluation of tumor burden as determined by whole body bioluminescence imaging using IVIS imager

[6] = test system: phosphorylated SFK, FLT3, STAT5, and ERK; assay: Immunoblot of phosphorylated SFK, FLT3, STAT5 and ERK in FLT3-ITD cell lines; assay type: cell-based, human; conditions: MOLM-13 and MV4-11, serum starved, 10-min treatment
Method: (§1) Cell lines were serum starved overnight followed by a 10-min treatment. Cells were washed in ice-cold PBS then lysed in 1X Cell Lysis Buffer (CST) supplemented with proteinase and phosphatase inhibitors cocktail (Roche). Pierce BCA Protein Assay was used to quantify the protein lysates (Thermo Fisher Scientific, Waltham, MA). For Immunoblotting, 15–25 μg of protein lysate was prepared in 2X or 4X Laemmeli’s sample buffer (Bio-Rad Laboratories, Hercules, CA) and heated for 5 min at 100 °C. Samples were separated on 8% sodium dodecyl sulfate polyacrylamide gel and transferred onto nitrocellulose membrane (Bio-Rad Laboratories, Hercules, CA). The membranes were blocked for 1 h in Blocker BLOTTO Blocking Buffer (Thermo Fisher Scientific, Waltham, MA) or 5% non-fat milk followed by overnight incubation at 4 °C with primary antibody followed by HRP-conjugated secondary antibodies and visualized with chemiluminescent Pierce ECL Substrate (Thermo Fisher Scientific, Waltham, MA) on X-ray films.
(§2) Immunoblot analysis for MOLM-13, MV4-11, and OCI-AML3 AML cell lines (representative of 2-3 independent blots). […] Twenty to 25 μg of total protein lysate was loaded per lane.

[7] = set-up: method as in PMID 30093506; conditions: cynomolgus monkeys, cited from earlier work
[8] = test system: Ba/F3 FLT3-ITD pMIT SYK-TEL
Method: as §3

[9] = test system: BTK phosphorylation; assay: Immunoblot of phospho-BTK; assay type: cell-based, human; conditions: AML cell lines; MOLM-13 1 µM for 1 hour (Figure S2)
Method: as §1, with “Cells” for “Cell lines were serum starved overnight followed by a 10-min treatment. Cells”
as §2

[10] = test system: MOLM13-Res; assay: MTT proliferation assay 72 h, MOLM13-Res (D835Y); assay type: cell-based, human
Text: As one of the main resistance mechanisms to FLT3 inhibitors is the acquisition of TKD mutations, we tested the anti-proliferative activity of ARQ 531 in the MOLM-13 TKI-resistant (MOLM13-Res) cell line previously described in Zimmerman et al.. In this model, MOLM-13 cells have gained a D835Y mutation via continuous exposure to the FLT3 inhibitor tandutinib.

Chain of FLT3-ITD (P36888 564-993, stated change not applied): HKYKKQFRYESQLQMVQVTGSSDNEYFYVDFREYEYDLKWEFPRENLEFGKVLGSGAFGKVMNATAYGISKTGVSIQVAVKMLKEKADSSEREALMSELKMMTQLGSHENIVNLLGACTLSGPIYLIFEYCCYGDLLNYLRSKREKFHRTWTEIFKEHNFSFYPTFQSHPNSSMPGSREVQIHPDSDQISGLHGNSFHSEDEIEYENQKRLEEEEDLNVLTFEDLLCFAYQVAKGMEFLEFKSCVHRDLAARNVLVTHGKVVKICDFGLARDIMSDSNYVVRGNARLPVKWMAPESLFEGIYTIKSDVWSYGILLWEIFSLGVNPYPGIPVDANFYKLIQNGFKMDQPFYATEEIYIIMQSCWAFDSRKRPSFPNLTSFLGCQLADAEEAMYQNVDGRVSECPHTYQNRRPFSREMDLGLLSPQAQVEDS

**Q.** With `O=C(c1ccc(Oc2ccccc2)cc1Cl)c1c[nH]c2ncnc(N[C@@H]3CC[C@@H](CO)OC3)c12` [ARQ 531] as the compound, how does the pIC50 [1] read?
**A.** Its pIC50 is 6.48.

**Q.** And the “Estimated ratio of colony formation vs. DMSO” value [2]?
**A.** The value was 0.45.

**Q.** And the IC50 [3]?
**A.** The IC50 was 7.55 µM.

**Q.** What about the pIC50 [4] of the same compound?
**A.** The pIC50 was 5.37 and 5.57 and 5.46.

**Q.** What about the survival [5] of the same compound?
**A.** The survival was 27 days.

**Q.** And the “concentration inhibiting phosphorylated levels of SFK, FLT3, STAT5, and ERK” value [6]?
**A.** Its value is ≤ 500 nM.

**Q.** What about the “plasma half-life (t1/2)” value ([7]; not calculated due to absence of elimination phase) of the same compound?
**A.** Its value is “long plasma half-life”.

**Q.** What about the Tmax ([7]; single 10 mg/kg oral dose) of the same compound?
**A.** The Tmax was ≤ 6 h.

**Q.** And the oral bioavailability ([7]; single 10 mg/kg oral dose)?
**A.** Its oral bioavailability is 72%.

**Q.** What about the “share of peak concentration present at 24 h” value ([7]; single 10 mg/kg oral dose) of the same compound?
**A.** The value was 75%.

**Q.** What about the Cmax ([7]; single 10 mg/kg oral dose, read-out: maximum concentration (Cmax)) of the same compound?
**A.** Its Cmax is 9 µM.

**Q.** What about the pIC50 [8] of the same compound?
**A.** The pIC50 was 4.96 and 5.23 and 5.18.

**Q.** What about the “effect on BTK phosphorylation” value [9] of the same compound?
**A.** Its value is “potently inhibits BTK”.

**Q.** What about the IC50 ([10]; Homo sapiens, read-out: Estimated absolute µM IC50 and 95% CI, MTT, 72 h) of the same compound?
**A.** The IC50 was 3.42 µM.

**Q.** And the IC50 ([10]; read-out: Estimated absolute µM IC50 and 95% CI, MTT)?
**A.** Its IC50 is 3.4 µM.
